Source: paper PMC6679423 (International Journal of Molecular Sciences, 2019)
Marks after values point to notes of the source that are not given here.

Columns and labels:
CYP3A4 = details: cited from earlier work
human recombinant CYP1A1 = target: T1, human recombinant CYP1A1 (Homo sapiens, UniProt P04798); experiment: Vandetanib oxidation by human recombinant CYP1A1 (Supersomes); type: in vitro ADME
T1 construct: purchased Gentest Corp; host or cells: insect cells (baculovirus)
T1 sequence (P04798 1-512): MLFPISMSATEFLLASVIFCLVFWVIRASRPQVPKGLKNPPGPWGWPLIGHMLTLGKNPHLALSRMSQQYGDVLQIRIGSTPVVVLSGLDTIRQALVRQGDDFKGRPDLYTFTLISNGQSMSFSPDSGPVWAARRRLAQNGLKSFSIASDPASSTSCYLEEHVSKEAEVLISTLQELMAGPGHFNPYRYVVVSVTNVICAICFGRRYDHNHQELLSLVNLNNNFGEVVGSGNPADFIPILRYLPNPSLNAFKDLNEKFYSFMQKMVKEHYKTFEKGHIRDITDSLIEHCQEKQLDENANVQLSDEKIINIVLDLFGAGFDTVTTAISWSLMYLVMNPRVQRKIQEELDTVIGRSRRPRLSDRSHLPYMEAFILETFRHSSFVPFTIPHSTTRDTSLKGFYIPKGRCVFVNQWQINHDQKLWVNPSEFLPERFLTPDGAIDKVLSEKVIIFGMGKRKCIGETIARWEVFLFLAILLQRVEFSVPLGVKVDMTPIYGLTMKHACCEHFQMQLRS
Description: (§1) Vandetanib was from LC Laboratories (Woburn, MA, USA). Ketoconazole, NADPH, methimazol and other chemicals were all purchased from Sigma-Aldrich (St. Louis, MO, USA). The purity of all chemicals met the standards of American Chemical Society, unless noted otherwise. All animal experiments were conducted in accordance with the Regulations for the Care and Use of Laboratory Animals (311/1997, Ministry of Agriculture, Czech Republic), which follows the Declaration of Helsinki. Male Wistar rats (~125–150 g; AnLab, Czech Republic), male C57BL/6 mice ([…]; CXR Bioscience Ltd., Dundee, UK), and male New Zealand rabbits (2.5–3 kg; AnLab, Czech Republic) were employed as animal models. Animals were placed in cages in temperature- and humidity-controlled rooms, acclimatized for five days and maintained at 22 °C with a 12 h light/dark period. Standardized diet and water were provided ad libitum. Rats, mice and rabbits used to prepare microsomal fraction from untreated animals were sacrificed by cervical dislocation, livers snap-frozen in liquid nitrogen and stored at −80 °C until further processing (see below). For controls, livers of the animals were removed immediately after sacrifice, divided into small pieces (~1 g), snap-frozen in liquid nitrogen, and stored at −80 °C until isolation of microsomal fractions. Pooled microsomes were used for all in vitro experiments in the present study and prepared from 10 livers/group for all animal species following established protocols. Microsomal fractions were stored at −80 °C until analysis. Protein concentrations in the microsomal fractions were assessed using the bicinchoninic acid protein assay with bovine serum albumin as a standard. Male human hepatic microsomes (pooled sample) (sample LOT: 3043885) were from Gentest Corp. (Woburn, MA, USA). Microsomes from livers of twelve human donors were obtained from Gentest Corp. (Woburn, MA, USA) (cat. no. HG43–1, HG103, HG74, HG93, HG24, HG27, HG23, HG32, HK31, HK34, HG03, and HG42). Each human microsomal sample has been characterized for CYP, FMO and protein contents and specific CYP activities by Gentest Corp. We reanalyzed each microsomal preparation for specific CYP, NADPH:CYP reductase (POR) and FMO activities by assays described in the protocols of Gentest Corp. Our data were similar to those reported by Gentest Corp. in their specification sheets. […]

VEGFR and EGFR = details: compared to the parent drug; cited from earlier work
mouse hepatic microsomes = experiment: Oxidation of vandetanib by mouse hepatic microsomes; type: in vitro ADME; details: 50 µM vandetanib, N-oxide higher
Description: (§2) Vandetanib was from LC Laboratories (Woburn, MA, USA). Ketoconazole, NADPH, methimazol and other chemicals were all purchased from Sigma-Aldrich (St. Louis, MO, USA). The purity of all chemicals met the standards of American Chemical Society, unless noted otherwise. All animal experiments were conducted in accordance with the Regulations for the Care and Use of Laboratory Animals (311/1997, Ministry of Agriculture, Czech Republic), which follows the Declaration of Helsinki. Male Wistar rats (~125–150 g; AnLab, Czech Republic), male C57BL/6 mice ([…]; CXR Bioscience Ltd., Dundee, UK), and male New Zealand rabbits (2.5–3 kg; AnLab, Czech Republic) were employed as animal models. Animals were placed in cages in temperature- and humidity-controlled rooms, acclimatized for five days and maintained at 22 °C with a 12 h light/dark period. Standardized diet and water were provided ad libitum. Rats, mice and rabbits used to prepare microsomal fraction from untreated animals were sacrificed by cervical dislocation, livers snap-frozen in liquid nitrogen and stored at −80 °C until further processing (see below). […] Protein concentrations in the microsomal fractions were assessed using the bicinchoninic acid protein assay with bovine serum albumin as a standard. […]

human liver microsomes [1] = experiment: Vandetanib metabolite formation by hepatic microsomes of 12 human donors; type: in vitro ADME; details: detection limit < 0.002
Description: as §1, with “sheets. The content of CYP, specific CYP and FMO activities in each human hepatic microsomes [phenacetin-O-deethylation (CYP1A2), coumarin-7-hydroxylation (CYP2A6), (S)-mephenytoin-N-demethylase (CYP2B6), paclitaxel-6α-hydroxylation (CYP2C8), diclofenac-4’-hydroxylation (CYP2C9), (S)-mephenytoin-4′-hydroxylation (CYP2C19), bufuralol-1’-hydroxylation (CYP2D6), chlorzoxazone-6-hydroxylation (CYP2E1), testosterone-6β-hydroxylation (CYP3A4), lauric acid-12-hydroxylation (CYP4A), methyl-p-tolyl sulfide oxidase (FMO)] are shown in Table 2. Human recombinant enzymes were used in the forms of Supersomes™ and obtained from Gentest Corp. In Supersomes™ microsomal fractions were isolated from insect cells that are transfected with baculovirus constructs containing cDNA of human CYP enzymes (CYP1A1/2, 1B1, 2A6, 2B6, 2C8/9/18/19/, 2D6, 2E1, 3A4). These Supersomes™ also express NADPH:CYP oxidoreductase (POR). However, because they are microsomes (particles of broken endoplasmic reticulum), other enzymes (proteins) of the endoplasmic reticulum membrane (like NADH:cytochrome b5 reductase and cytochrome b5) are also expressed at basal levels in these Supersomes™. We also utilized Supersomes™ which over-expressed cytochrome b5, in a molar ratio of CYP to cytochrome b5 of 1 to 5. In Supersomes™ where cytochrome b5 was not over-expressed (see above) pure cytochrome b5 was added to reach a molar ratio of CYP to cytochrome b5 of 1 to 5. Reconstitution of Supersomes™ with purified cytochrome b5 was performed as described previously.” for “sheets.”

human recombinant FMO1 = experiment: Vandetanib oxidation by human recombinant FMOs (Supersomes); type: in vitro ADME; details: recombinant FMO1 vs FMO3
Description: as §2

[2] = system: rabbit hepatic microsomes; experiment: Oxidation of vandetanib by rabbit hepatic microsomes; type: in vitro ADME; details: 50 µM vandetanib, N-oxide higher
Description: as §2

human hepatic microsomes [3] = experiment: Correlation of CYP- and FMO-linked activities with vandetanib metabolite formation in human hepatic microsomes; type: in vitro ADME; details: 12 human liver microsomal samples; for Correlation coefficient (r) of metabolite amount with CYP2E1 activity: chlorzoxazone-6-hydroxylase
Description: as §1, with “sheets. The content of CYP, specific CYP and FMO activities in each human hepatic microsomes [phenacetin-O-deethylation (CYP1A2), coumarin-7-hydroxylation (CYP2A6), (S)-mephenytoin-N-demethylase (CYP2B6), paclitaxel-6α-hydroxylation (CYP2C8), diclofenac-4’-hydroxylation (CYP2C9), (S)-mephenytoin-4′-hydroxylation (CYP2C19), bufuralol-1’-hydroxylation (CYP2D6), chlorzoxazone-6-hydroxylation (CYP2E1), testosterone-6β-hydroxylation (CYP3A4), lauric acid-12-hydroxylation (CYP4A), methyl-p-tolyl sulfide oxidase (FMO)] are shown in Table 2. Human recombinant enzymes were used in the forms of Supersomes™ and obtained from Gentest Corp. In Supersomes™ microsomal fractions were isolated from insect cells that are transfected with baculovirus constructs containing cDNA of human CYP enzymes (CYP1A1/2, 1B1, 2A6, 2B6, 2C8/9/18/19/, 2D6, 2E1, 3A4). These Supersomes™ also express NADPH:CYP oxidoreductase (POR). However, because they are microsomes (particles of broken endoplasmic reticulum), other enzymes (proteins) of the endoplasmic reticulum membrane (like NADH:cytochrome b5 reductase and cytochrome b5) are also expressed at basal levels in these Supersomes™. We also utilized Supersomes™ which over-expressed cytochrome b5, in a molar ratio of CYP to cytochrome b5 of 1 to 5. In Supersomes™ where cytochrome b5 was not over-expressed (see above) pure cytochrome b5 was added to reach a molar ratio of CYP to cytochrome b5 of 1 to 5. Reconstitution of Supersomes™ with purified cytochrome b5 was performed as described previously.” for “sheets.”

rat hepatic microsomes = experiment: Oxidation of vandetanib by rat hepatic microsomes; type: in vitro ADME; details: 50 µM vandetanib, N-oxide higher
Description: as §2

human hepatic microsomes [4] = experiment: Oxidation of vandetanib by human hepatic microsomes; type: in vitro ADME
From the text: The reaction was initiated by adding vandetanib.

human liver microsomes [5] = experiment: Vandetanib metabolite formation by hepatic microsomes of 12 human donors; type: in vitro ADME; details: human hepatic microsomal sample HK23; detection limit < 0.002
[6] = target: CYP enzymes in human liver microsomes (Homo sapiens, UniProt P08684); experiment: Effects of inhibitors on N-desmethylvandetanib formation in human liver microsomes; details: inhibitor 50 μM equimolar to vandetanib (50 μM), 0.1 nmol microsomal CYP
Description: After the incubations, 5 µL of 1 mM phenacetine (dissolved in methanol) was added as internal standard. The reaction was stopped by extraction with dichlormethane (2 × 1 mL).
Inhibition studies in human liver microsomes were essentially conducted as reported previously.

CYP enzymes in human liver microsomes, sequence (P08684 2-503): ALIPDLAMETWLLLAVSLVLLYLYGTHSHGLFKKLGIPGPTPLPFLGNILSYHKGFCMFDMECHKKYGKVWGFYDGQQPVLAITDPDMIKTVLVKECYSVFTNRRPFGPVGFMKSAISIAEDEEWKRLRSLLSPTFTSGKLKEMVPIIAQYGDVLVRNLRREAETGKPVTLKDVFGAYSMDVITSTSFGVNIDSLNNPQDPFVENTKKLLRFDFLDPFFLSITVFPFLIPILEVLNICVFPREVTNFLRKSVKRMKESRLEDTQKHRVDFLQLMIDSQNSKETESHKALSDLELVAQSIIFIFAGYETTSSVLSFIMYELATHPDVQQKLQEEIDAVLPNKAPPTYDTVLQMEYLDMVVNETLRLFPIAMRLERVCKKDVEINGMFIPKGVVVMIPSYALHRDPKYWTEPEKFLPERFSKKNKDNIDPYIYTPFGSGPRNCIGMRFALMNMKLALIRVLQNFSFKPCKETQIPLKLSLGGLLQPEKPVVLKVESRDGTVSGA
CYP enzymes in human liver microsomes, sequence (P16435 2-677, further chain): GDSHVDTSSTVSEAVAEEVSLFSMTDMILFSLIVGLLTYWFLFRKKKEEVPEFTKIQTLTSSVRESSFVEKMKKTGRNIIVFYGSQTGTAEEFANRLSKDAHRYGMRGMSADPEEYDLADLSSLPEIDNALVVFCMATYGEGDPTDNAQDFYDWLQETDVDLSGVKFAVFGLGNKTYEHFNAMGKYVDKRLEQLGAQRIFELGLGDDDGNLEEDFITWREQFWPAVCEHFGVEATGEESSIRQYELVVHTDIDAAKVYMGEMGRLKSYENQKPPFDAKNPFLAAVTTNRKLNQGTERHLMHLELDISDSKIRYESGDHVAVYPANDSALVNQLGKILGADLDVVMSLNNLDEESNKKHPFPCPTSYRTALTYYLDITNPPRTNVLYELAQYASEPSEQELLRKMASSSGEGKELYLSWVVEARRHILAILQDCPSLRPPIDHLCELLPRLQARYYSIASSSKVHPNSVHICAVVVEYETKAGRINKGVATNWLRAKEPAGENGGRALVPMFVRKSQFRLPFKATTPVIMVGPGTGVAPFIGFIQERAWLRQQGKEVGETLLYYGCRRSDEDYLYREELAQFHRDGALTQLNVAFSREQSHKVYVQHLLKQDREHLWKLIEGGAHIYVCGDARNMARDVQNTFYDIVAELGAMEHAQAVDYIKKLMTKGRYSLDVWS

CCC(C)n1ncn(-c2ccc(N3CCN(c4ccc(OCC5COC(Cn6cncn6)(c6ccc(Cl)cc6Cl)O5)cc4)CC3)cc2)c1=O (stereo not shown) [itraconazol]
inhibition of the formation of N-desmethylvandetanib after vandetanib treatment (CYP3A4): almost ineffective

COc1cc2c(Nc3ccc(Br)cc3F)ncnc2cc1OCC1CCN(C)CC1 [vandetanib, N-(4-bromo-2-fluorophenyl)-6-methoxy-7-[(1-methylpiperidin-4-yl)-methoxy]-quinazolin-4-amine, reference compound]
VMax, maximal velocity of N-desmethylvandetanib formation (human recombinant CYP1A1; CYP1A1, hyperbolic kinetics): 0.76 ± 0.02 peak area/min/nmol CYP
K0.5, substrate concentration corresponding to half-maximal velocity (human recombinant CYP1A1; CYP1A1, oxidation to N-desmethylvandetanib): 35.12 ± 2.75 µM

COc1cc2c(Nc3ccc(Br)cc3F)ncnc2cc1OCC1CC[N+](C)([O-])CC1 (stereo not shown) [vandetanib-N-oxide]
pharmacological activity relative to vandetanib (fold less active) (VEGFR and EGFR): more than 50 fold
F, fold difference between formation of N-desmethylvandetanib and vandetanib-N-oxide (mouse hepatic microsomes): 4- to 8 fold
vandetanib-N-oxide (M2) formed (human liver microsomes [1]; human hepatic microsomal sample HG24): 0.004 peak area/(mg protein × min)
vandetanib-N-oxide (M2) formed (human liver microsomes [1]; human hepatic microsomal sample HG42): 0.015 peak area/(mg protein × min)
vandetanib-N-oxide (M2) formed (human liver microsomes [1]; human hepatic microsomal sample HG74): 0.004 peak area/(mg protein × min)
vandetanib-N-oxide (M2) formed (human liver microsomes [1]; human hepatic microsomal sample HG93): 0.112 peak area/(mg protein × min)
vandetanib-N-oxide (M2) formed (human liver microsomes [1]; human hepatic microsomal sample HG103): 0.004 peak area/(mg protein × min)
vandetanib-N-oxide (M2) formed (human liver microsomes [1]; human hepatic microsomal sample HK31): 0.015 peak area/(mg protein × min)
efficiency of FMO1 to form vandetanib-N-oxide relative to FMO3 (human recombinant FMO1): over 5 times
F, fold difference between formation of N-desmethylvandetanib and vandetanib-N-oxide [2]: 4- to 8 fold
Correlation coefficient (r) of metabolite amount with POR (human hepatic microsomes [3]): 0.035
Correlation coefficient (r) of metabolite amount with Total CYPs (human hepatic microsomes [3]): 0.166
Correlation coefficient (r) of metabolite amount with CYP2C19 activity (human hepatic microsomes [3]; (S)-mephenytoin-4′-hydroxylase): 0.088
Correlation coefficient (r) of metabolite amount with CYP2B6 activity (human hepatic microsomes [3]; (S)-mephenytoin-N-demethylase): 0.093
Correlation coefficient (r) of metabolite amount with CYP2D6 activity (human hepatic microsomes [3]; bufuralol-1′-hydroxylase): −0.343
Correlation coefficient (r) of metabolite amount with CYP2E1 activity (human hepatic microsomes [3]): 0.714
Correlation coefficient (r) of metabolite amount with CYP2E1 activity (human hepatic microsomes [3]; listed as M2): 0.714 **
Correlation coefficient (r) of metabolite amount with CYP2A6 activity (human hepatic microsomes [3]; coumarine-7-hydroxylase): −0.339
Correlation coefficient (r) of metabolite amount with CYP2C9 activity (human hepatic microsomes [3]; diclofenac-4′-hydroxylase): −0.039
Correlation coefficient (r) of metabolite amount with FMO activity (human hepatic microsomes [3]; methyl-p-tolyl sulfide oxidase, listed as M2): 0.736 **
Correlation coefficient (r) of metabolite amount with CYP2C8 activity (human hepatic microsomes [3]; paclitaxel-6α-hydroxylase): 0.288
Correlation coefficient (r) of metabolite amount with CYP1A2 activity (human hepatic microsomes [3]; phenacetin-O-deethylase): −0.157
Correlation coefficient (r) of metabolite amount with CYP3A4 activity (human hepatic microsomes [3]; testosterone-6β-hydroxylase): −0.200
F, fold difference between formation of N-desmethylvandetanib and vandetanib-N-oxide (rat hepatic microsomes): 4- to 8 fold
vandetanib-N-oxide formed at fold lower amounts than N-desmethylvandetanib (human hepatic microsomes [4]): ~ 4 fold
vandetanib-N-oxide (M2) formed (human liver microsomes [5]): 0.008 peak area/(mg protein × min)

O=c1cc(-c2ccccc2)oc2c1ccc1ccccc12 [α-Napththoflavone, α-naphthoflavone]
% of Inhibition, N-Desmethyvandetanib Formation [6]: 0%
% of Inhibition, N-Desmethyvandetanib Formation ([6]; listed as α-NF): no inhibitory effects
